Values joined by “and” are separate entries in the source; they are usually repeats but may differ in a detail not shown here. Equal entries are not always repeated. Where two headings read alike, the source gives them in different places.
Legend:
FaSSIF solubility assay = assay type: physicochemical; conditions: pH 6.5, 4 h
Method: Solubility of test compounds in fasted simulated intestinal fluid (FaSSIF) was determined at pH 6.5 after 4 h equilibration at rt. An amount of1 mL of FaSSIF buffer (3 mM sodium taurocholate, 0.75 mM lecithin in sodium phosphate buffer at pH 6.5) was added to manually weighed 1 mg of solid compound in a 2 mL HPLC autosampler vial. The resulting suspension was shaken at 900 rpm for 4 h at rt and then transferred to a Multiscreen HTS, 96-well solubility filter plate. The residual solid was removed by filtration. The supernatant solution was quantified by HPLC−UV using single-point calibration of a known concentration of the compound in DMSO. The dynamic range of the assay was 1−1000 μg/mL.

[1] = system: wild-type T. cruzi epimastigotes; assay: epimastigote drug sensitivity assay, wild-type; assay type: cell-based; conditions: Trypanosoma cruzi
Method: T. cruzi epimastigotes from the Silvio strain (MHOM/BR/78/Silvio; clone X10/7A) were grown at 28°C in RTH/FBS medium ([80]).
T. cruzi epimastigote assays carried out as described previously ([43]).

[2] = biological target: T1, Human complex III (bc1), mitochondria from THP-1 (Homo sapiens, UniProt P00156); assay: human complex III inhibition assay; assay type: biochemical
T1 construct: Preparation of mitochondria from a human cell line (THP-1); endogenous in cells; host or cells: THP-1 (human) mitochondria
Method: Preparation of mitochondria from a human cell line (THP-1) was performed following published procedure ([72]). The protocol for the assay has been described in ([73]).

[3] = system: isolated rat liver mitochondria; assay: calcium loading capacity (CLC) in rat liver mitochondria; assay type: biochemical; conditions: minimum effective concentration
Method: The CLC of freshly isolated liver mitochondria was determined as previously described ([70]). Briefly, mitochondria were suspended at 0.2 mg/ml in incubation buffer B, supplemented with 100 μM arsenazo III, 2.5 μM rotenone and 1 μg/ml oligomycin in each well of a 96 well microplate (control and treated mitochondria were assayed simultaneously) and absorbance measured every 2 seconds at 650 nm in a FlexStation3 microplate reader (Molecular Devices, Sunnyvale, CA, USA). After approximately 1 minute of reading, Ca^2+ was added (0.5-1 μmol/ mg mitochondrial protein) followed by the addition of 10 mM succinate as the mitochondrial substrate. The CLC was calculated as the difference in optical density (ΔOD) between the point at which mitochondria were energized and the point where mitochondrial permeability transition was triggered (i.e., the lowest OD reading before calcium release via MPT).
The concentration-response relationship was modelled using a robust fit of a cubic polynomial regression ([74], [75]). The fitted curves were then used to calculate the Minimum Effective Concentration (MEC). The MEC was defined as the lowest concentration where the fitted curve exceeded 3 standard deviations (SD) around the DMSO mean response. SD was estimated from the deviations of DMSO and compound treated wells around the fitted means, using a robust estimator based on Gini’s mean difference ([76]).

HepG2 cells = assay: Seahorse MST (mitochondrial stress test), oxygen consumption rate; assay type: cell-based; conditions: lowest concentration reducing OCR >15% vs DMSO
Method: To measure the Oxygen Consumption Rate (OCR) in cells following compound treatment, the Seahorse XFe96 Extracellular Flux Analyser (Agilent) was used ([69]). HepG2 cells were maintained in DMEM medium (Invitrogen #11966-025) supplemented with 10 mM galactose, 1 mM sodium pyruvate, 5 mM HEPES, 2 mM GlutaMAX, 10% fetal bovine serum and 50 μg/ml gentamycin. Cells were maintained in a 37 °C, 5% CO2 humidified atmosphere. The measurement of OCR was performed as previously described ([70], [71]) with minor modifications. Briefly, HepG2 cells were seeded in an XF96-well plate at 14000 cells per 100 μl cell culture medium per well and incubated in a 37 °C, 5% CO2 humidified atmosphere for 24 hours. Following incubation, the culture medium was replaced with 175 μl pre-warmed, serum-free XF base assay medium (Agilent), supplemented with 2 mM L-glutamine, 1 mM sodium pyruvate and 10 mM galactose (pH 7.4) and incubated at 37 °C for one hour. Test compounds (compound 3 and 4) were maintained in DMSO and a four-point dose response (final concentrations 10, 20, 40 and 80 μM), plus 0.4% DMSO control, were diluted to 8× concentration in XF assay medium and 25 μL was loaded into Port A of the XF Assay Cartridge. The mito-stress test components oligomycin (1 μM final), carbonyl cyanide-4-(trifluoromethoxy)-phenylhydrazon [FCCP] […]

[4] = system: chronic T. cruzi infection (CL Brener) in BALB/c mice; set-up: method as in PMID 27748443; conditions: cited from earlier work
[5] = set-up: method as in PMID 21073628, PMID 20932171; conditions: patients; cited from earlier work
[6] = Table 2, wild-type epimastigotes, read-out: EC50 WT
[7] = 200.00 µM, read-out: Average % inhibition of human bc1

Row | SMILES | FaSSIF pH 6.5 (FaSSIF solubility assay) | EC50 [1, 6] | % inhibition of human bc1, individual replicates ([2]; 0.09 µM) | inhibition at 0.09 µM ([2]; 0.09 µM) | % inhibition of human bc1, individual replicates ([2]; 0.27 µM) | inhibition at 0.27 µM ([2]; 0.27 µM) | % inhibition of human bc1, individual replicates ([2]; 0.82 µM) | inhibition at 0.82 µM ([2]; 0.82 µM) | % inhibition of human bc1, individual replicates ([2]; 2.47 µM) | inhibition at 2.47 µM ([2]; 2.47 µM) | % inhibition of human bc1, individual replicates ([2]; 7.41 µM) | inhibition at 7.41 µM ([2]; 7.41 µM) | % inhibition of human bc1, individual replicates ([2]; 22.22 µM) | inhibition at 22.22 µM ([2]; 22.22 µM) | % inhibition of human bc1, individual replicates ([2]; 66.67 µM) | inhibition at 66.67 µM ([2]; 66.67 µM) | % inhibition of human bc1, individual replicates ([2]; 200.00 µM) | inhibition at 200 µM [2, 7] | Calcium loading capacity, rat mitochondria, MEC [3] | Seahorse MST, HepG2, LEC (HepG2 cells) | further results
1 | COc1ccc(-c2c(C)[nH]c3nc(N)nc(C)c23)c(OC)c1 [Compound 4, 5-(2,4-Dimethoxyphenyl)-4,6-dimethyl-7H-pyrrolo[2,3-d]pyrimidin-2-amine] | 107 µg/mL | 88 ± 3 nM | -12.21% and 6.38% | -2.92% | -0.73% and 8.86% and -14.09% | -1.99% | -0.42% and -1.05% and -3.03% | -1.5% | -7.80% and 0.71% and -1.55% | -2.88% | 20.02% and -3.97% and 5.85% | 7.3% | 11.11% and -1.32% and 9.84% | 6.55% | 21.01% and 18.54% and -10.78% | 9.59% | 5.17% and 18.62% and -0.60% | 7.73% | >200 µM | >80 µM | EC50 [2]: > 200000 nM
2 | COc1cc(F)ccc1-c1c(C)[nH]c2nc(N)nc(C)c12 [Compound 2, 5-(4-Fluoro-2-methoxyphenyl)-4,6-dimethyl-7H-pyrrolo[2,3-d]pyrimidin-2-amine] | 153 µg/mL | 33 ± 2 nM |  |  |  |  |  |  |  |  |  |  |  |  |  |  |  |  |  |  | 
3 | COc1cc(Cl)ccc1-c1c(C)[nH]c2nc(N)nc(C)c12 [Compound 3, 5-(4-Chloro-2-methoxyphenyl)-4,6-dimethyl-7H-pyrrolo[2,3-d]pyrimidin-2-amine] | 76 µg/mL | 6 ± 0.2 nM | -102.79% and -0.39% and 23.45% and -1.32% and -77.48% and 6.58% | -25.3% | -31.71% and -5.91% and 16.57% and 7.05% and 0.38% and 2.42% | -1.87% | -55.04% and -6.88% and 19.61% and 6.94% and 1.93% and 10.74% | -3.78% | -19.11% and -13.68% and 7.11% and 15.66% and -8.81% and 14.23% | -0.76% | -1.93% and 0.10% and 21.95% and 17.90% and 0.73% and -3.46% | 5.88% | -14.09% and -16.93% and 21.42% and 11.31% and -5.13% | -0.68% | -178.30% and 13.25% and 22.71% and -32.39% and -2.98% and 16.87% | -26.8% | 22.88% and 27.88% and 27.19% and -35.32% and 30.21% and 59.63% | 22.1% | 5.7 µM | 80 µM | EC50 ([1]; read-out: EC50 wild-type): 4.6 ± 0.2 nM; EC50 ([1]; read-out: EC50 wild-type epimastigotes): 11.3 ± 0.5 nM; inhibition at 200 µM ([2]; 200 μM, read-out: Human complex III inhibition at 200μM): 20%; inhibition of human complex III ([2]; concentrations up to and including 66.7 μM): did not inhibit
4 | O=C(Cn1ccnc1[N+](=O)[O-])NCc1ccccc1 [Benznidazole, reference compound] |  |  |  |  |  |  |  |  |  |  |  |  |  |  |  |  |  |  |  |  | minimum efficacious dose in a five-day chronic study [4]: 100 mg/kg; discontinuation of treatment prior to completion due to adverse side-effects [5]: up to 29%
